From paper PMC10949855 (Journal of veterinary pharmacology and therapeutics, 2022)

Key:
[1] = after SC and IM administration at 0.25 mg/kg, dogs; ref Pfeffer et al., 1980; cited from earlier work
healthy dogs = assay: Adverse effects observed after administration; details: SC 0.4 mg/kg
[2] = Pharmacokinetics of butorphanol in plasma; details: for AUC(0-inf): AUCinf
dogs = details: SC, ref Pircio et al., 1976; cited from earlier work
[3] = both, Beagle, dog, in vivo, iv, 0.4 mg/kg, IV bolus 0.4 mg/kg IV, geometric mean, n=6
[4] = both, Beagle, dog, in vivo, sc, 0.4 mg/kg
[5] = both, Beagle, dog, in vivo, sc, 0.4 mg/kg, SC 0.4 mg/kg, geometric mean, n=6

SMILES: Oc1ccc2c(c1)[C@@]13CCCC[C@@]1(O)[C@@H](C2)N(CC1CCC1)CC3 [butorphanol]
- CMAX range [1]: 25 to 33 ng/mL
- terminal half-life [1]: 1.5 to 1.7 h
- hypersalivation (healthy dogs): 2/6
- Css (steady state plasma concentration) ([2]; IV CRI: 0.2 mg/kg IV loading dose then 0.2 mg/kg/hr for 8 hours, geometric mean, n=5): 0.0431 µg/mL
- AUC extrapolated ([2]; IV bolus 0.4 mg/kg IV, geometric mean, n=6): 1.0%
- AUC extrapolated ([2]; SC 0.4 mg/kg, geometric mean, n=6): 2.5%
- half-life ([2]; both, Beagle, dog, in vivo, half-life, dogs, overall statement of abstract): ~1.5 h
- concentration at 5 min ([2]; both, Beagle, dog, in vivo, iv, 0.4 mg/kg): 0.144 µg/mL
- AUC(0-inf) [2, 3]: 0.143 µg·h/mL
- C0 ([2]; both, Beagle, dog, in vivo, iv, 0.4 mg/kg, C0, IV bolus 0.4 mg/kg IV, geometric mean, n=6): 0.183 µg/mL
- clearance ([2]; both, Beagle, dog, in vivo, iv, 0.4 mg/kg, Cl, IV bolus 0.4 mg/kg IV, geometric mean, n=6): 2.79 L/h/kg
- MRT [2, 3]: 1.26 h
- half-life ([2]; both, Beagle, dog, in vivo, iv, 0.4 mg/kg, T ½ λz, IV bolus 0.4 mg/kg IV, geometric mean, n=6): 1.47 h
- Vd ([2]; both, Beagle, dog, in vivo, iv, 0.4 mg/kg, Vss, IV bolus 0.4 mg/kg IV, geometric mean, n=6): 3.51 L/kg
- Vd ([2]; both, Beagle, dog, in vivo, iv, 0.4 mg/kg, Vz, IV bolus 0.4 mg/kg IV, geometric mean, n=6): 5.91 L/kg
- k el ([2]; both, Beagle, dog, in vivo, iv, 0.4 mg/kg, λz, IV bolus 0.4 mg/kg IV, geometric mean, n=6): 0.000131 s⁻¹
- half-life ([2]; both, Beagle, dog, in vivo, iv, T ½ λz, IV CRI: 0.2 mg/kg IV loading dose then 0.2 mg/kg/hr for 8 hours, geometric mean, n=5): 1.42 h
- k el ([2]; both, Beagle, dog, in vivo, iv, λz, IV CRI: 0.2 mg/kg IV loading dose then 0.2 mg/kg/hr for 8 hours, geometric mean, n=5): 0.000136 s⁻¹
- Cmax [2, 4]: 0.0742 µg/mL
- TMAX [2, 4]: 0.21 h
- AUC(0-inf) [2, 5]: 0.123 µg·h/mL
- MRT [2, 5]: 2.09 h
- half-life ([2]; both, Beagle, dog, in vivo, sc, 0.4 mg/kg, T ½ λz, SC 0.4 mg/kg, geometric mean, n=6): 1.83 h
- k el ([2]; both, Beagle, dog, in vivo, sc, 0.4 mg/kg, Λz, SC 0.4 mg/kg, geometric mean, n=6): 0.000105 s⁻¹
- dose of maximum effect on miosis (dogs): 0.25 mg/kg
